We go through 4 compounds from patent US10973780B2 (priority 2019, dated 2021).

Counter-ions that a name gives are not always drawn. Like-named read-outs stand apart in the source and are kept apart here. Where only a bound is given, the exact number is not on record here.

The conditions of series [1]: cited from earlier work.
For series [2] the following is noted: elevated pHs around 5.5; cited from earlier work.
A short description of series [3]: pH of ketamine formulations and ketamine HCl solutions. Type of series: physicochemical.
The conditions of series [4]: cited from earlier work. The source holds these as a separate data set.
For series [5] the following is noted: cited from earlier work. The source holds these as a separate data set.
For series [6] the following is noted: cited from earlier work. This is another data set of the same source.
For series [7] the following is noted: cited from earlier work. This is another data set of the same source.
For series [8] the following is noted: cited from earlier work. The source holds these as a separate data set.
For series [9] the following is noted: rat, daily IV injections for 1 month; cited from earlier work.

Consider `CC(O)COC[C@H]1O[C@@H]2O[C@H]3[C@H](O)[C@@H](O)[C@@H](O[C@H]4[C@H](O)[C@@H](O)[C@@H](O[C@H]5[C@H](O)[C@@H](O)[C@@H](O[C@H]6[C@H](O)[C@@H](O)[C@@H](O[C@H]7[C@H](O)[C@@H](O)[C@@H](O[C@H]8[C@H](O)[C@@H](O)[C@@H](O[C@H]1[C@H](O)[C@H]2O)O[C@@H]8COCC(C)O)O[C@@H]7COCC(C)O)O[C@@H]6COCC(C)O)O[C@@H]5COCC(C)O)O[C@@H]4COCC(C)O)O[C@@H]3COCC(C)O` (stereo partly drawn) [HP-β-CD, hydroxypropyl-beta-cyclodextrin], for which, in [1] (in vivo), the amount found safe is recorded as approximately 250 mg/kg/day.
For `CNC1(c2ccccc2Cl)CCCCC1=O` (centres unmarked) [ketamine HCl, ketamine hydrochloride], the precipitation entry in series [2] was “exhibit precipitation”. Further, in [3] (100 mg/mL (ketamine freebase equivalent) in water), the pH entry is on record as “around 4”. Moreover, the “average pH” value stood at 3.74 in series [3] (measured in USP bottles of ketamine 100 mg/mL) and 3.93 in series [3] (solutions formed from powdered ketamine HCl).
Take `CNC1(c2ccccc2Cl)CCCCC1=O` (centres unmarked) [ketamine, 2-(2-chlorophenyl)-2-(methylamino)cyclohexanone]: the “Bioavailability (grade)” value is listed as “High” in [4] (Intramuscular); “Low” in [4] (Intranasal); “Highest” in [4] (Intravenous); “Very Low” in [4] (Oral); “High” in series [4] (Subcutaneous); “Low” in series [4] (Sublingual). Also, the Bioavailability in [4] (Intranasal) is 25-50%; in [4] (Intravenous), 100%; in series [4] (Oral), 11-20%; in series [4] (Subcutaneous), more than 90%; in series [4] (Sublingual) it was 29%. Further, the “Side Effects” value is reported as “High” in [5] (Intramuscular); “High” in [5] (Intranasal); “Moderate” in series [5] (Intravenous); “Moderate” in series [5] (Oral); “Low” in series [5] (Subcutaneous); “Moderate” in series [5] (Sublingual). In addition, the “Metabolite Exposure” value in series [6] (Intramuscular) is given as “Low”; in series [6] (Intranasal), “High”; in series [6] (Intravenous), “Low”; in series [6] (Subcutaneous) it was “Low”; in series [6] (Sublingual), “High”. In addition, the “increase in exposure to undesirable inflammatory metabolites” value in series [6] (oral dosing to reach equivalence to a short IV or IM treatment) is “up to 9 fold”; in series [6] (sublingual route), 3 fold.
One may read the solubility as the dissolved amount per volume that the medium holds. For the compound “sulfobutyl-ether-beta-cyclodextrin [SBE-β-CD]”, the solubility in series [7] is 600 mg/mL. In addition, the osmolality in series [8] (20% solution, degree of substitution 6.5) was 785 mOsm/kg. In addition, the “concentration iso-osmotic with blood and extracellular fluid” value in series [8] (according to the manufacturer) was 9.5-11.4%. For the same compound, in [9], the NOEL was 80 mg/kg. Further, the amount found safe in series [1] (6 months, humans older than 2 years) was approximately 250 mg/kg/day. The tolerability entry in series [1] (infusion rates 292 to 4375 mg/min) is listed as “well-tolerated with no clinically relevant side effects or changes in renal biomarkers”.
